According to the NIST ThermoML archive (doi:10.1016/j.fluid.2015.03.023):
± gives the expanded uncertainty stated by the source.

Conditions: Liquid; for mass density: 298.15 K, 101.33 kPa, Vibrating tube method; for vapor or sublimation pressure: 308.15 K, Ebulliometric method (Recirculating still)

## CCCCCCC [heptane]
  mass density: 679.6 ± 0.18 kg/m3
  vapor or sublimation pressure: 9.916 ± 0.1 kPa

## ClC(Cl)(Cl)Br [bromotrichloromethane]
  mass density: 2002.14 ± 1.2 kg/m3
  vapor or sublimation pressure: 8.428 ± 0.1 kPa

## BrCBr [dibromomethane]
  mass density: 2478.61 ± 1.8 kg/m3
  vapor or sublimation pressure: 9.932 ± 0.1 kPa

## ClCBr [bromochloromethane]
  mass density: 1921.71 ± 1.1 kg/m3
  vapor or sublimation pressure: 31.05 ± 0.18 kPa
